# PubChem BioAssay (NCI)
#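 Where inhibition never reached the appropriate level, the endpoint shown equals the highest concentration tested. Otherwise, values were interpolated linearly from a five-concentration, 48-hour dose response in 96-well plates. TGI is the concentration that stops growth completely.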
# How the values were obtained:
# Experiment in all cases: DTP human tumour cell line panel, 48 h
# [1] = tested on: MOLT-4 leukemia
# [2] = tested on: SNB-19 CNS
# [3] = tested on: A549 NSCLC
# [4] = tested on: U251 CNS
# [5] = tested on: COLO 205 colon
# [6] = tested on: NCI-H460 lung
# [7] = tested on: OVCAR-5 ovarian
# [8] = tested on: OVCAR-3 ovarian
# [9] = tested on: HCT-15 colon
# [10] = tested on: SW-620 colon
# [11] = tested on: RXF 393 renal
# [12] = tested on: TK-10 renal
# [13] = tested on: SR leukemia
# [14] = tested on: MDA-N
# [15] = tested on: MDA-MB-435
Compound,TGI [1] [µM],TGI [2] [µM],TGI [3] [µM],TGI [4] [µM],TGI [5] [µM],TGI [6] [µM],TGI [7] [µM],TGI [8] [µM],TGI [9] [µM],TGI [10] [µM],TGI [11] [µM],TGI [12] [µM],TGI [13] [µM],TGI [14] [µM],TGI [15] [µM]
CC1=C2C3OC(=O)C(C)C3CCC2(C)C=CC1=Nc1ccccc1 (centres undefined),> 100,> 100,> 100,> 100,> 100,> 100,> 100,> 100,> 100,> 100,> 100,–,–,–,–
CC1(C)OC(=O)C(Cc2ccccc2)(Cc2ccccc2)C(=O)O1,> 100,–,> 100,> 100,> 100,> 100,> 100,–,> 100,> 100,> 100,> 100,> 100,> 100,–
O=P(O)(CN1CCN(CP(=O)(O)c2ccccc2)CCN(CP(=O)(O)c2ccccc2)CC1)c1ccccc1,> 100,> 100,> 100,> 100,> 100,> 100,> 100,> 100,–,> 100,> 100,> 100,–,> 100,> 100
COc1cccc(-c2c(-c3ccccc3)[nH]c(C)c2C(=O)ONC(=O)c2ccccc2)c1,18.2,23.8,9.59,11.4,32.6,11.4,26.2,22.8,26.1,40.5,17.1,22.1,15.5,–,13.7
CCOC(=O)C(=O)NC12CC3CC(CC(C3)C1)C2,–,> 100,> 100,> 100,> 100,> 100,> 100,–,> 100,> 100,> 100,> 100,–,–,–
CNC(=O)NS(=O)(=O)c1ccc(C)cc1,> 100,> 100,> 100,> 100,> 100,> 100,> 100,–,> 100,> 100,> 100,> 100,–,> 100,–
N#Cc1c(O)c2ccccc2[nH]c1=O,> 100,> 100,> 100,> 100,> 100,–,> 100,> 100,> 100,> 100,> 100,> 100,–,> 100,> 100
CCCCC(=O)Nc1ccc2c(C)cc(-c3ccc(-c4cc(-c5ccc(C)cc5)cc(-c5ccc(-c6cc(C)c7ccc(NC(=O)CCCC)nc7n6)cc5)n4)cc3)nc2n1,> 100,> 100,> 100,> 100,> 100,> 100,> 100,> 100,> 100,–,–,> 100,–,> 100,> 100
Cn1c(=O)c(Cl)c(N=[N+]=[N-])c2ccccc21,> 100,> 100,> 100,> 100,> 100,> 100,> 100,> 100,> 100,> 100,> 100,> 100,> 100,> 100,–
CCCN(CCC)C1=Nc2ccccc2-n2cnnc2C1,> 100,> 100,> 100,> 100,> 100,> 100,> 100,> 100,> 100,> 100,> 100,> 100,> 100,–,–
O=C1/C(=C/c2ccc(Cl)cc2)CSC/C1=C\c1ccc(Cl)cc1,9,17,10.1,3.04,7.26,30.5,5.57,8.11,> 100,13.4,3.36,13,8.15,10.6,–
O=C1c2ccccc2C(=O)c2c(NCCCN3CCOCC3)ccc(NCCCN3CCOCC3)c21,19.8,41,16.2,19,–,4.61,38.5,40.3,> 100,28.1,27.1,39.1,> 100,13.6,–
C=C1Cc2cc(OC)c(OC)c(OC)c2-c2ccc(SC)c(=O)cc21,25.2,5.3,19.5,–,< 0.0318,< 0.035,12.6,< 0.01,1.17,4,10.4,6.83,> 100,–,–
CC(O)[C@@]1(c2ccccc2)CC2(CCN(C)CC2)O[C@H]1C (some centres undefined),> 100,> 100,> 100,> 100,> 100,> 100,> 100,> 100,> 100,> 100,> 100,> 100,> 100,–,> 100
CN(C(=O)c1ccc(OCCCC(=O)O)c(Cl)c1Cl)C1CCCC1,> 100,> 100,> 100,> 100,> 100,> 100,> 100,> 100,> 100,> 100,> 100,–,–,–,–
COc1cc(C=O)cc(O)c1O,> 100,> 100,> 100,> 100,> 100,> 100,–,> 100,> 100,> 100,–,> 100,> 100,–,–
O=C1CCCc2ccc3c(c21)CC1(Cc2ccccc2C1)C3,–,–,> 100,> 100,52.3,–,> 100,98.6,> 100,–,> 100,> 100,–,67.2,> 100
